Values of other authors as cited in patent publication US8377476B2, “Butenafine hydrochloride-containing aqueous patch” (Teikoku Seiyaku Co., Ltd., priority 2008, dated 2013).
Where a name gives a salt, the structure may show the parent alone. Read-outs that look alike come from different tables or passages of the source.

For `CN(Cc1ccc(C(C)(C)C)cc1)Cc1cccc2ccccc12` [butenafine hydrochloride], the Water-solubility (hydrochloride) is listed as “low water-solubility” and the Water-solubility (listed as Butenafine hydrochloride) is listed as “extremely poor water-solubility”.
